Data from ChEMBL document CHEMBL1139163, “Discovery and initial SAR of 3-(1H-benzo[d]imidazol-2-yl)pyridin-2(1H)-ones as inhibitors of insulin-like growth factor 1-receptor (IGF-1R)” (Bioorg Med Chem Lett, 2007).

Legend:
[1] = molecular target: Insulin-like growth factor 1 receptor (Homo sapiens, UniProt P08069); experiment: Inhibition of human recombinant IGF1 receptor
HT-29 = experiment: Cytotoxicity against HT29 cells by MTT assay; assay type: functional, Homo sapiens

Insulin-like growth factor 1 receptor, sequence (P08069 31-736 limits assumed): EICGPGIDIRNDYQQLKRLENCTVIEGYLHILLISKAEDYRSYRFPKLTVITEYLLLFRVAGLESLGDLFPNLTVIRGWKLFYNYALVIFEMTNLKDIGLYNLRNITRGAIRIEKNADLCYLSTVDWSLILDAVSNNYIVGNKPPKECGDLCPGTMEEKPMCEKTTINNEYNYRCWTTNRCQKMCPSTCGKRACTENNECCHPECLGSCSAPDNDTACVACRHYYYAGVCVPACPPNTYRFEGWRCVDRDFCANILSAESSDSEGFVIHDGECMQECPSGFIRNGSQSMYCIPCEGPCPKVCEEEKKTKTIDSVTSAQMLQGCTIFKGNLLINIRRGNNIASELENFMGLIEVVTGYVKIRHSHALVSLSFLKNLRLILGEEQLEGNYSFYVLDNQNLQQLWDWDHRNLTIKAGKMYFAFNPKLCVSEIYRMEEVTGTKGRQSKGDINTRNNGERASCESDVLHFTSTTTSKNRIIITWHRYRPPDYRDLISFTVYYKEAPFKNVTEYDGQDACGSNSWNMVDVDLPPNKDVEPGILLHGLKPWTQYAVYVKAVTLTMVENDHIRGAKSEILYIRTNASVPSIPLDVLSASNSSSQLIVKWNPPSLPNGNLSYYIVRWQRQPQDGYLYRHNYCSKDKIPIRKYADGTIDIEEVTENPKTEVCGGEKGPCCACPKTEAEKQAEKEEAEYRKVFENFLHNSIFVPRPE
Insulin-like growth factor 1 receptor, sequence (P08069 741-1367 limits assumed): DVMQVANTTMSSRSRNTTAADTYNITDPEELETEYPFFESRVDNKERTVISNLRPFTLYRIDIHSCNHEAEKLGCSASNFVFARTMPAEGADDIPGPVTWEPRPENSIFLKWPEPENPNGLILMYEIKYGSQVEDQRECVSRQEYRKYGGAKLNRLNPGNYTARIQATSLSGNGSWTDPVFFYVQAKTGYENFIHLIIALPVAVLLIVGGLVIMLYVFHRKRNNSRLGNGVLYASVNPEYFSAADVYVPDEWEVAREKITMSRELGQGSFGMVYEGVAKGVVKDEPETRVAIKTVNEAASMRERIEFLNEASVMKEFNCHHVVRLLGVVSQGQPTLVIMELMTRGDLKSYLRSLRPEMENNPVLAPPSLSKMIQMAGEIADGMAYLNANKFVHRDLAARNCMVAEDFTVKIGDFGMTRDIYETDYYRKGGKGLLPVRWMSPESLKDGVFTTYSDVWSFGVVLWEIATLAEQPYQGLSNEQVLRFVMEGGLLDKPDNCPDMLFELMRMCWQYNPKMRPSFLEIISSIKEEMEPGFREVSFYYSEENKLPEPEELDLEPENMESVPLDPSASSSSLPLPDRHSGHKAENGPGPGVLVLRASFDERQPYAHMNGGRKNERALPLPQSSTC

Structure (SMILES) | IC50 [1] [µM] | Activity (HT-29) [µM]
Cc1cc(-n2ccnc2)cc2[nH]c(-c3c(N[C@H](CO)Cc4ccc(Cl)cc4)cc[nH]c3=O)nc12 | 5.4 | 
Cc1cc(-n2ccnc2)cc2nc(-c3c(NCc4ccccn4)cc[nH]c3=O)[nH]c12 |  | 7.6
Cc1cc(-n2ccnc2)cc2[nH]c(-c3c(N[C@H](CO)Cc4cccc([N+](=O)[O-])c4)cc[nH]c3=O)nc12 | 3.3 | 
Cc1cc(-n2ccnc2)cc2[nH]c(-c3c(N[C@H](CO)Cc4cccc(Br)c4)cc[nH]c3=O)nc12 | 0.59 | 1.3
Cc1cc(-n2ccnc2)cc2[nH]c(-c3c(N[C@H](CO)Cc4cccc(C(F)(F)F)c4)cc[nH]c3=O)nc12 | 3.5 | 
Cc1cc(-n2ccnc2)cc2[nH]c(-c3c(N[C@H](CO)Cc4ccc(OC(C)(C)C)cc4)cc[nH]c3=O)nc12 | 1.7 | 
Cc1cc(-n2ccnc2)cc2[nH]c(-c3c(N[C@H](CO)Cc4cccc(Cl)c4)cc[nH]c3=O)nc12 | 0.73 | 1.1
Cc1cc(-n2ccnc2)cc2[nH]c(-c3c(N[C@H](CO)Cc4cccc(F)c4)cc[nH]c3=O)nc12 | 0.59 | 2.1
Cc1cc(-n2ccnc2)cc2[nH]c(-c3c(NCCc4cccs4)cc[nH]c3=O)nc12 | 2.1 | 
Cc1cc(-n2ccnc2)cc2[nH]c(-c3c(NCc4cccs4)cc[nH]c3=O)nc12 | 5.3 | 
Cc1cc(-n2ccnc2)cc2[nH]c(-c3c(N[C@H](CO)Cc4ccccc4Br)cc[nH]c3=O)nc12 | 0.29 | 0.83
Cc1cc(-n2ccnc2)cc2[nH]c(-c3c(N[C@H](CO)Cc4ccccc4OC(F)(F)F)cc[nH]c3=O)nc12 | 1.3 | 
Cc1cc(-n2ccnc2)cc2[nH]c(-c3c(N[C@H](CO)Cc4ccc(F)cc4)cc[nH]c3=O)nc12 | 1.4 | 
COc1ccc(C[C@@H](CO)Nc2cc[nH]c(=O)c2-c2nc3c(C)cc(-n4ccnc4)cc3[nH]2)cc1 | 3.1 | 
Cc1ccccc1C[C@@H](CO)Nc1cc[nH]c(=O)c1-c1nc2c(C)cc(-n3ccnc3)cc2[nH]1 | 0.53 | 
Cc1cc(-n2ccnc2)cc2[nH]c(-c3c(N[C@H](CO)Cc4ccccc4)cc[nH]c3=O)nc12 | 0.53 | 0.78
Cc1cc(-n2ccnc2)cc2[nH]c(-c3c(N[C@H](CO)Cc4ccccc4C#N)cc[nH]c3=O)nc12 | 2.2 | 
COc1ccccc1C[C@@H](CO)Nc1cc[nH]c(=O)c1-c1nc2c(C)cc(-n3ccnc3)cc2[nH]1 | 0.57 | 1.2
Cc1cc(-n2ccnc2)cc2[nH]c(-c3c(N[C@H](CO)Cc4ccccc4Cl)cc[nH]c3=O)nc12 | 0.86 | 
COc1cccc(C[C@@H](CO)Nc2cc[nH]c(=O)c2-c2nc3c(C)cc(-n4ccnc4)cc3[nH]2)c1 | 0.66 | 1.6
Cc1cc(-n2ccnc2)cc2[nH]c(-c3c(NCc4ccncc4)cc[nH]c3=O)nc12 | > 25 | 

Continued, in another order:

IC50 [1] [µM] | Structure (SMILES) | Activity (HT-29) [µM]
3 | Cc1cc(-n2ccnc2)cc2nc(-c3c(NCc4ccco4)cc[nH]c3=O)[nH]c12 | 
> 25 | CNCc1cc(-n2ccnc2)cc2nc(-c3ccc[nH]c3=O)[nH]c12 | 
13 | CCN(Cc1cc(-n2ccnc2)cc2[nH]c(-c3ccc[nH]c3=O)nc12)c1ncc[nH]1 | 
> 25 | O=c1[nH]cccc1-c1nc2cc(-n3ccnc3)cc(CNCc3cccnc3)c2[nH]1 | 
14 | Cc1cc(-n2ccnc2)cc2nc(-c3c(NCc4cccnc4)cc[nH]c3=O)[nH]c12 | 
> 25 | O=c1[nH]cccc1-c1nc2c(CNCc3ccccc3)cc(-n3ccnc3)cc2[nH]1 | 
> 25 | Cc1cc(-n2ccnc2)cc2[nH]c(-c3c(OCc4ccccn4)cc[nH]c3=O)nc12 | 
> 25 | O=c1[nH]cccc1-c1nc2c(CN3CCNCC3)cc(-n3ccnc3)cc2[nH]1 | 
> 25 | NCc1cc(-n2ccnc2)cc2nc(-c3ccc[nH]c3=O)[nH]c12 | 
2.5 | Cc1cc(-n2ccnc2)cc2nc(-c3c(NCCn4nccn4)cc[nH]c3=O)[nH]c12 | 
> 25 | CN(Cc1cc(-n2ccnc2)cc2[nH]c(-c3ccc[nH]c3=O)nc12)c1ccccc1 | 
> 25 | Cc1cc(-n2ccnc2)cc2[nH]c(-c3c(SCc4ccccn4)cc[nH]c3=O)nc12 | 
4.8 | Cc1cc(-n2ccnc2)cc2nc(-c3c(N[C@H](CO)Cc4ccccn4)cc[nH]c3=O)[nH]c12 | 
